Test results from PubChem BioAssay (NCI).
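All cell lines were grown in 96-well plates and treated with compound for 48 hours. The concentration for full growth arrest is given as TGI.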 Residues, ends and D or L forms follow the SMILES beside them. *: point of attachment. Boc = CC(C)(C)OC(=O)*; OBn = c1ccc(CO*)cc1

Columns and labels:
Test in all cases: DTP human tumour cell line panel, 48 h
[1] = tested on: 786-0 renal
[2] = tested on: A498 renal
[3] = tested on: A549 NSCLC
[4] = tested on: ACHN renal
[5] = tested on: BT-549 breast
[6] = tested on: CAKI-1 renal
[7] = tested on: CCRF-CEM leukemia
[8] = tested on: COLO 205 colon
[9] = tested on: DU-145 prostate
[10] = tested on: EKVX NSCLC
[11] = tested on: HCC-2998 colon
[12] = tested on: HCT-116 colon
[13] = tested on: HCT-15 colon
[14] = tested on: HL-60(TB) leukemia
[15] = tested on: HOP-62 NSCLC
[16] = tested on: HOP-92 NSCLC
[17] = tested on: HS 578T breast
[18] = tested on: HT29 colon
[19] = tested on: IGROV1 ovarian
[20] = tested on: K-562 leukemia
[21] = tested on: KM12 colon
[22] = tested on: LOX IMVI melanoma
[23] = tested on: M14 melanoma
[24] = tested on: MCF7 breast
[25] = tested on: MDA-MB-231 breast
[26] = tested on: MDA-MB-435
[27] = tested on: MDA-N
[28] = tested on: MOLT-4 leukemia
[29] = tested on: NCI-H226 lung
[30] = tested on: NCI-H23 lung
[31] = tested on: NCI-H460 lung
[32] = tested on: NCI/ADR-RES ovarian
[33] = tested on: OVCAR-3 ovarian
[34] = tested on: OVCAR-4 ovarian
[35] = tested on: OVCAR-5 ovarian
[36] = tested on: OVCAR-8 ovarian
[37] = tested on: PC-3 prostate
[38] = tested on: RPMI-8226 leukemia
[39] = tested on: SF-268 CNS
[40] = tested on: SF-295 CNS
[41] = tested on: SF-539 CNS
[42] = tested on: SK-MEL-2 melanoma
[43] = tested on: SK-MEL-28 melanoma
[44] = tested on: SK-MEL-5 melanoma
[45] = tested on: SN12C renal
[46] = tested on: SNB-19 CNS
[47] = tested on: SNB-75 CNS
[48] = tested on: SR leukemia
[49] = tested on: SW-620 colon
[50] = tested on: T-47D breast
[51] = tested on: TK-10 renal
[52] = tested on: U251 CNS
[53] = tested on: UACC-257 melanoma
[54] = tested on: UACC-62 melanoma
[55] = tested on: UO-31 renal
[56] = tested on: MALME-3M melanoma
[57] = tested on: NCI-H522 lung
[58] = tested on: SK-OV-3 ovarian
[59] = tested on: RXF 393 renal

For `O=c1c(-c2ccccc2)c2n(c3ccccc13)CCN2`, the TGI [1] was over 100 µM, the TGI [2] was over 100 µM and the TGI [3] was over 100 µM. The TGI [4] was over 100 µM, the TGI [5] was over 100 µM and the TGI [6] was over 100 µM. The TGI [7] was over 100 µM, the TGI [8] was over 100 µM and the TGI [9] was over 100 µM. It also gave a TGI [10] of over 100 µM, a TGI [11] of over 100 µM and a TGI [12] of over 100 µM. The TGI [13] was over 100 µM, the TGI [14] was over 100 µM and the TGI [15] was over 100 µM. The TGI [16] was over 100 µM, the TGI [17] was over 100 µM and the TGI [18] was over 100 µM. For the same molecule, the TGI [19] was over 100 µM, the TGI [20] was over 100 µM and the TGI [21] was over 100 µM. The TGI [22] was over 100 µM, the TGI [23] was over 100 µM and the TGI [24] was over 100 µM. The TGI [25] was over 100 µM, the TGI [26] was over 100 µM and the TGI [27] was over 100 µM. For the same molecule, the TGI [28] was over 100 µM, the TGI [29] was over 100 µM and the TGI [30] was over 100 µM. The TGI [31] was over 100 µM, the TGI [32] was over 100 µM and the TGI [33] was 66.6 µM. For the same molecule, the TGI [34] was over 100 µM, the TGI [35] was over 100 µM and the TGI [36] was over 100 µM. It also gave a TGI [37] of over 100 µM, a TGI [38] of over 100 µM and a TGI [39] of over 100 µM. For the same molecule, the TGI [40] was over 100 µM, the TGI [41] was over 100 µM and the TGI [42] was 61.1 µM. For the same molecule, the TGI [43] was over 100 µM, the TGI [44] was over 100 µM and the TGI [45] was over 100 µM. For the same molecule, the TGI [46] was 86.9 µM, the TGI [47] was over 100 µM and the TGI [48] was over 100 µM. The TGI [49] was over 100 µM, the TGI [50] was over 100 µM and the TGI [51] was over 100 µM. The TGI [52] was over 100 µM, the TGI [53] was over 100 µM and the TGI [54] was over 100 µM. For the same molecule, the TGI [55] was over 100 µM.

Molecule `Cc1cc(Nc2ccc(S(=O)(=O)O)cc2)c2ccccc2n1` has a TGI [1] of over 100 µM, a TGI [2] of over 100 µM and a TGI [3] of over 100 µM. It also gave a TGI [4] of over 100 µM, a TGI [5] of over 100 µM and a TGI [6] of over 100 µM. It also gave a TGI [7] of over 100 µM, a TGI [8] of over 100 µM and a TGI [9] of over 100 µM. For the same molecule, the TGI [10] was over 100 µM, the TGI [11] was over 100 µM and the TGI [12] was over 100 µM. For the same molecule, the TGI [13] was over 100 µM, the TGI [14] was over 100 µM and the TGI [15] was over 100 µM. It also gave a TGI [16] of over 100 µM, a TGI [17] of over 100 µM and a TGI [18] of over 100 µM. The TGI [19] was over 100 µM, the TGI [20] was over 100 µM and the TGI [21] was over 100 µM. For the same molecule, the TGI [22] was over 100 µM, the TGI [23] was over 100 µM and the TGI [56] was over 100 µM. For the same molecule, the TGI [24] was over 100 µM, the TGI [25] was over 100 µM and the TGI [26] was over 100 µM. For the same molecule, the TGI [27] was over 100 µM, the TGI [28] was over 100 µM and the TGI [29] was over 100 µM. The TGI [30] was over 100 µM, the TGI [57] was over 100 µM and the TGI [32] was over 100 µM. The TGI [33] was over 100 µM, the TGI [34] was over 100 µM and the TGI [35] was over 100 µM. The TGI [36] was over 100 µM, the TGI [37] was over 100 µM and the TGI [38] was over 100 µM. It also gave a TGI [39] of over 100 µM, a TGI [40] of over 100 µM and a TGI [41] of over 100 µM. For the same molecule, the TGI [42] was over 100 µM, the TGI [43] was over 100 µM and the TGI [44] was over 100 µM. It also gave a TGI [58] of over 100 µM, a TGI [45] of over 100 µM and a TGI [46] of over 100 µM. It also gave a TGI [47] of over 100 µM, a TGI [48] of over 100 µM and a TGI [49] of over 100 µM. For the same molecule, the TGI [50] was over 100 µM, the TGI [51] was over 100 µM and the TGI [52] was over 100 µM. It also gave a TGI [53] of over 100 µM, a TGI [54] of over 100 µM and a TGI [55] of over 100 µM.

`CC(C)CC(NC(=O)OC(C)(C)C)C(=O)NC(CC(=O)OCc1ccccc1)C(N)=O` (stereo not drawn) (Boc-Leu-Asp(OBn)-NH2; configuration not given here) gave a TGI [1] of over 100 µM, a TGI [2] of over 100 µM and a TGI [3] of over 100 µM. The TGI [4] was over 100 µM, the TGI [5] was over 100 µM and the TGI [6] was over 100 µM. The TGI [8] was over 100 µM, the TGI [9] was over 100 µM and the TGI [10] was over 100 µM. For the same molecule, the TGI [12] was over 100 µM, the TGI [13] was over 100 µM and the TGI [16] was over 100 µM. For the same molecule, the TGI [17] was over 100 µM, the TGI [18] was over 100 µM and the TGI [19] was over 100 µM. For the same molecule, the TGI [20] was over 100 µM, the TGI [21] was over 100 µM and the TGI [22] was over 100 µM. It also gave a TGI [23] of over 100 µM, a TGI [56] of over 100 µM and a TGI [24] of over 100 µM. The TGI [25] was over 100 µM, the TGI [26] was over 100 µM and the TGI [27] was over 100 µM. It also gave a TGI [29] of over 100 µM, a TGI [30] of over 100 µM and a TGI [57] of over 100 µM. The TGI [32] was over 100 µM, the TGI [33] was over 100 µM and the TGI [34] was over 100 µM. It also gave a TGI [35] of over 100 µM, a TGI [36] of over 100 µM and a TGI [37] of over 100 µM. For the same molecule, the TGI [59] was over 100 µM, the TGI [39] was over 100 µM and the TGI [40] was over 100 µM. For the same molecule, the TGI [41] was over 100 µM, the TGI [42] was over 100 µM and the TGI [43] was over 100 µM. It also gave a TGI [44] of over 100 µM, a TGI [58] of over 100 µM and a TGI [45] of over 100 µM. For the same molecule, the TGI [46] was over 100 µM, the TGI [47] was over 100 µM and the TGI [48] was over 100 µM. It also gave a TGI [49] of over 100 µM, a TGI [50] of over 100 µM and a TGI [51] of over 100 µM. For the same molecule, the TGI [52] was over 100 µM, the TGI [53] was over 100 µM and the TGI [54] was over 100 µM. The TGI [55] was over 100 µM.
